# Reference: patent US7868188B2, “5-heteroaryl thiazoles and their use as PI3K inhibitors” (AstraZeneca AB, priority 2004, dated 2011)
# What was measured:
# Test in all cases: PI 3-Kinase Assay (Additional Pharmacological Analysis, AlphaScreen)
# Format in all cases: biochemical
# Conditions in all cases: 40 μM ATP
# [1] = target: T1, p110α Type Ia human PI3K (Homo sapiens, UniProt P42336)
# T1 construct: full length DNA of each of the p110α, p110β and p110δ Type Ia human PI3K p110 isoforms; 6-His; made in house; host or cells: baculovirus expression system (Sf9 is named only for PI3Kγ)
# T1 sequence (P42336 whole entry, canonical isoform): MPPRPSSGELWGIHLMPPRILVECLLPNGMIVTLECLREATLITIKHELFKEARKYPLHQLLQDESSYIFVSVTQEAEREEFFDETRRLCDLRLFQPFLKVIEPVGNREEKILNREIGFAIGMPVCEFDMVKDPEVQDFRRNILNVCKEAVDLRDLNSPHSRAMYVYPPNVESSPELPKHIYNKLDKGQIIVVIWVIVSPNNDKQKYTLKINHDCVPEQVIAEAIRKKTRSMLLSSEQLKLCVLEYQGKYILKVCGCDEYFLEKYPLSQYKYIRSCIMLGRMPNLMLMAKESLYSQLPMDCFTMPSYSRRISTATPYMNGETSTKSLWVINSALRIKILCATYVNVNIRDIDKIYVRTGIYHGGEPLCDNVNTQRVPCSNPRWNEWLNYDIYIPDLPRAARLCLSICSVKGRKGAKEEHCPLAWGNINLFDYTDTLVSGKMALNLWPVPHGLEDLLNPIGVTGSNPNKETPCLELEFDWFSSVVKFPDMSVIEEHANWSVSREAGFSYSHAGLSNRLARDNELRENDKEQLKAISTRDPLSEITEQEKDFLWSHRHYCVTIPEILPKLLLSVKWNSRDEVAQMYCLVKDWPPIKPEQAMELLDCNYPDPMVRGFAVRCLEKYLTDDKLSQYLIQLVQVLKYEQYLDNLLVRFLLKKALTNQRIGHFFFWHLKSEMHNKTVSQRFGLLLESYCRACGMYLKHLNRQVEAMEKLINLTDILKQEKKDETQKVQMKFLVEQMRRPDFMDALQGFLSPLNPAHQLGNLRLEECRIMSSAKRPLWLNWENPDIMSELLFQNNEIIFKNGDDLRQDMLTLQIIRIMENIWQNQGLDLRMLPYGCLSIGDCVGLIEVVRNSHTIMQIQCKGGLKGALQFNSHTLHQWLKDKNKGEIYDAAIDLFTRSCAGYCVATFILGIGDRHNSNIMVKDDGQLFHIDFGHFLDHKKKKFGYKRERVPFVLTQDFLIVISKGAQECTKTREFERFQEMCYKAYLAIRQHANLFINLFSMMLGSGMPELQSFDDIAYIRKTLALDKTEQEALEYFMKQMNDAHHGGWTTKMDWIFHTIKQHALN
# T1 sequence (P27986 whole entry partner, canonical isoform): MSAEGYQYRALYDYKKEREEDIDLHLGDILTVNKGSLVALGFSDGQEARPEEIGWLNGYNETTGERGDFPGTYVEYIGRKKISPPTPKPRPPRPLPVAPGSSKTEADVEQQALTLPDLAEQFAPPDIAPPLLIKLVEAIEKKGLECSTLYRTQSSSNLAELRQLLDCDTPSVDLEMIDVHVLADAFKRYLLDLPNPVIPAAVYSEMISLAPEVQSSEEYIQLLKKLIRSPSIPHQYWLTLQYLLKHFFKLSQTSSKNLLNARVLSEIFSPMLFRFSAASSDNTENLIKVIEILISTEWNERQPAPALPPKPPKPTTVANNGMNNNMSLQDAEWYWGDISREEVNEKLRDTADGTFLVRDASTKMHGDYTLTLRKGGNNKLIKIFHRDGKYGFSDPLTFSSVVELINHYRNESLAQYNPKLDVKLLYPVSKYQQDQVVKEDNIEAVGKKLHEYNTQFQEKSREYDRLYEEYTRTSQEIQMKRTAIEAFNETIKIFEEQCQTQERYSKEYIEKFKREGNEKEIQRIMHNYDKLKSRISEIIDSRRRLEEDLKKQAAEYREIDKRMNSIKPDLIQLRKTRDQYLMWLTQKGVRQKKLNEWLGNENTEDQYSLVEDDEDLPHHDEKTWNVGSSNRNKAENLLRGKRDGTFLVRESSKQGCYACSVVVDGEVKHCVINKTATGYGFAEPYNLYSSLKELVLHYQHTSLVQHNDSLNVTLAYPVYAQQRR
# Source text: (§1) In order to assess the ability of compounds to inhibit PI3K enzymes, especially PI3Kγ, a novel PI3K assay technology was established. The PI3K enzyme reaction product phosphatidylinositol 3,4,5-trisphosphate (PtdIns(3,4,5)P3) is detected using the pleckstrin homology (PH) domain from general receptor for phosphoinositides (GRP1) as probe. Thus, complexes form between GRP1 PH and PtdIns(3,4,5)P3, and if the lipid is biotinylated and the PH domain tagged with glutathion transferase (GST), the complexes can be detected using AlphaScreen® (PerkinElmer) technology. The signal generated by the complex between GRP1 PH-GST and PtdIns(3,4,5)P3-biotin can be quenched by introduction of non-biotinylated PtdIns(3,4,5)P3, forming the basis for an assay measuring the production of PtdIns(3,4,5)P3 by PI3K enzyme activity.
# (§2) Biotinylated PtdIns(3,4,5)P3 was detected using AlphaScreen® technology. Detection was in 384-well microplates in 50 mM Hepes, pH7.4, 50 mM NaCl and 0.1% BSA. The biotinylated, short chain (diC8) phosphoinositide and GRP1 PH-GST were added at 15 nM and 3.75 nM, respectively. Donor and acceptor AlphaScreen® beads (Perkin Elmer) were added at 5 μg/ml to a final volume of 50 μl. Plates were incubated in the dark for 5 hours to ensure binding was complete and then read in an AlphaQuest AD instrument (Perkin Elmer) using standard settings.
# (§3) The GRP1 PH domain (amino acids 263 to 380) was PCR cloned from a mouse brain cDNA library (Stratagene), expressed in E. coli and purified using standard protocols. Lipids were from Echelon Research Laboratories, Salt Lake City, Utah, or Cell Signals Inc., Lexington, Ky., USA.
# (§4) The assay used AlphaScreen® based detection of PI(3,4,5)P3 (Gray et al., Anal. Biochem., 2003, 313, 234-245) to determine the ability of test compounds to inhibit phosphorylation of recombinant PI3Ks of PI(4,5)P2.
# (§5) DNA fragments encoding human PI3K catalytic and regulatory subunits were isolated from cDNA libraries using standard molecular biology and PCR cloning techniques. The selected DNA fragments were used to generate baculovirus expression vectors. In particular, full length DNA of each of the p110α, p110β and p110δ Type Ia human PI3K p110 isoforms (EMBL Accession Nos. HSU79143, S67334, Y10055 for p110α, p110β and p110δ, respectively) were sub-cloned into a pDEST10 vector (Invitrogen Limited, Fountain Drive, Paisley, UK). The vector is a Gateway-adapted version of Fastbac1 containing a 6-His epitope tag. The full length human p85 (regulatory subunit (EMBL Accession No. HSP13KIN) was also sub-cloned into pFastBac1 vector containing a 6-His epitope tag. The Type Ia p110 constructs were co-expressed with the p85α regulatory subunit. Residues 2-1102 of human PI3Kγ were inserted between the BamHI and Not1 cloning sites of the […] HTb vector for expression of His(6)-tagged (N-terminal), full length PI3Kγ in baculo virus infected Sf9 insect cells. Following expression in the baculovirus system using standard baculovirus expression techniques, expressed proteins were purified using standard His epitope tag purification techniques.
# (§6) Standard enzyme reactions were performed in 50 mM Hepes, pH7.4, 50 mM NaCl, […], 5 mM DTT and 0.05% CHAPS containing 40 μM ATP, 40 μM diC8 PtdIns(4,5)P2 and 2-20 ng of Type 1 PI3K in a total volume of 20 μl. The reaction was stopped by the addition of 10 μl of EDTA/diC6 PtdIns(3,4,5)P3-biotin followed by 20 μl of GRP1 PH-GST/AlphaScreen beads both in 50 mM Hepes, pH7.4, 50 mM NaCl and 0.1% BSA. Final concentrations were 50 mM EDTA, 15 nM biotinylated diC6PtdIns(3,4,5)P3, 3.75 nM GRP1 PH-GST and 5 μg/ml of AlphaScreen beads. Inhibitors were added to dry wells in […] of 100% DMSO giving a final DMSO concentration of 2.5% in the assay. Control wells contained 2.5% DMSO in the absence of test compound. Inhibition of PI3K by test compounds was expressed as an IC50 value.
# [2] = target: T2, p110β Type Ia human PI3K (Homo sapiens, UniProt P42338)
# T2 construct: full length DNA of each of the p110α, p110β and p110δ Type Ia human PI3K p110 isoforms; 6-His; made in house; host or cells: baculovirus expression system (Sf9 is named only for PI3Kγ)
# T2 sequence (P42338 whole entry, canonical isoform): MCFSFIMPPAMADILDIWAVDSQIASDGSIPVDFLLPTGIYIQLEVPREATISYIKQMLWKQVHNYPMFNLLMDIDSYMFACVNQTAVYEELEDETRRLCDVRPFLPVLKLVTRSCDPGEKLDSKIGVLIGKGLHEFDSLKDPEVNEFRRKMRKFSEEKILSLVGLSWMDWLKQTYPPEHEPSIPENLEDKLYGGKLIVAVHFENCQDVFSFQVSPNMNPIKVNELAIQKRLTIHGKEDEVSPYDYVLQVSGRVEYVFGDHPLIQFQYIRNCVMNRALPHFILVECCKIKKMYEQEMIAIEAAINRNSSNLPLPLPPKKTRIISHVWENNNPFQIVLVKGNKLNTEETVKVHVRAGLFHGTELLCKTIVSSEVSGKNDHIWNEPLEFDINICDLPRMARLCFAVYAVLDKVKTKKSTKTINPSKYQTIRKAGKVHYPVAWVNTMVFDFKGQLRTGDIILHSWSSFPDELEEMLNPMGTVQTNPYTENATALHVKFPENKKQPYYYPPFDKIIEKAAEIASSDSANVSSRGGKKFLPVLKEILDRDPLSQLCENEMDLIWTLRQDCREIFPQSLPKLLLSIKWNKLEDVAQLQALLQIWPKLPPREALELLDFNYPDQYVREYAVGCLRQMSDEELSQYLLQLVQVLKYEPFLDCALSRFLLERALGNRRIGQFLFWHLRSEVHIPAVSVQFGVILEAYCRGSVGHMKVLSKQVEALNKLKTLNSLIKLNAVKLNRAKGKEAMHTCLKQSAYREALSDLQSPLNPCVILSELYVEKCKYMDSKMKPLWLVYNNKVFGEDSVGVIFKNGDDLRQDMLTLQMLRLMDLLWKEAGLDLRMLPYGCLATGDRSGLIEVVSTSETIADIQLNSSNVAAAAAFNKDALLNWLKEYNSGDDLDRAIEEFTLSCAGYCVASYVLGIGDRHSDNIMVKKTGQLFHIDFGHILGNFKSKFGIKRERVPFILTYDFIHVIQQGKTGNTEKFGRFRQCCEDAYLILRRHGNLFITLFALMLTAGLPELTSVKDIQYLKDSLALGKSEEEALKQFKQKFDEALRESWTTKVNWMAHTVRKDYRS
# T2 sequence (P27986 whole entry partner, canonical isoform): as the sequence (P27986 whole entry partner, canonical isoform) above
# Source text: as §1, §2, §3, §4, §5, §6
# [3] = target: T3, p110γ Type Ib human PI3K (Homo sapiens, UniProt P48736)
# T3 construct: Residues 2-1102 of human PI3Kγ were inserted between the BamHI and Not1 cloning sites; His(6) (N); made in house; host or cells: baculovirus-infected Sf9 insect cells
# T3 sequence (P48736 2-1102): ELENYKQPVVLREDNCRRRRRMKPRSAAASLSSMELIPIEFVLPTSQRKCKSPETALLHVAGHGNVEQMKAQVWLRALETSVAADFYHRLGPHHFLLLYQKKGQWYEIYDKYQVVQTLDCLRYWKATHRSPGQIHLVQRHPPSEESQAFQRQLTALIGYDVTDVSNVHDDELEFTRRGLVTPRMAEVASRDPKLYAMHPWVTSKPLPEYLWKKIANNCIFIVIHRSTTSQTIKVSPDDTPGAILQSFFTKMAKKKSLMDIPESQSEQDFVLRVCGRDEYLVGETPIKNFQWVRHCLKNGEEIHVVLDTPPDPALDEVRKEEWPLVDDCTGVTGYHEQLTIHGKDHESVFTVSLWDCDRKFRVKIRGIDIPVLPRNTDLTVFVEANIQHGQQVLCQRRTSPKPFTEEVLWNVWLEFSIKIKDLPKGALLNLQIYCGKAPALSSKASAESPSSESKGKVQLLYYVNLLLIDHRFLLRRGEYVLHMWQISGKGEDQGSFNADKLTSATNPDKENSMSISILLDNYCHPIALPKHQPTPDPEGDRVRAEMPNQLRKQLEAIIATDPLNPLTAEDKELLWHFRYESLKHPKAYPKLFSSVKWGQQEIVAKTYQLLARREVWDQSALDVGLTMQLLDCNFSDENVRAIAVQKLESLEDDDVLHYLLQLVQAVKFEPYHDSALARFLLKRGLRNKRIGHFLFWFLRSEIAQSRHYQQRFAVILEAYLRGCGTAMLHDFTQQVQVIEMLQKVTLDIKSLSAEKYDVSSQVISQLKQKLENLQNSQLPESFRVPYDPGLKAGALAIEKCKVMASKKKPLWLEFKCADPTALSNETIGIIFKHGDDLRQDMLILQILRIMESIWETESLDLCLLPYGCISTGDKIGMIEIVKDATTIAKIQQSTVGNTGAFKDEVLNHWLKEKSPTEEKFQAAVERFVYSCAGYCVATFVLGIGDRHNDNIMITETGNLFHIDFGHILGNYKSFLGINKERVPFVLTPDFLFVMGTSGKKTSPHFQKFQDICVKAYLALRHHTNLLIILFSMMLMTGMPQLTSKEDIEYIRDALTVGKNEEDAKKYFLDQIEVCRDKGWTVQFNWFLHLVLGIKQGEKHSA
# Source text: as §1, §2, §3, §4, §5, §6
# [4] = target: T4, p110δ Type Ia human PI3K (Homo sapiens, UniProt O00329)
# T4 construct: full length DNA of each of the p110α, p110β and p110δ Type Ia human PI3K p110 isoforms; 6-His; made in house; host or cells: baculovirus expression system (Sf9 is named only for PI3Kγ)
# T4 sequence (O00329 whole entry, canonical isoform): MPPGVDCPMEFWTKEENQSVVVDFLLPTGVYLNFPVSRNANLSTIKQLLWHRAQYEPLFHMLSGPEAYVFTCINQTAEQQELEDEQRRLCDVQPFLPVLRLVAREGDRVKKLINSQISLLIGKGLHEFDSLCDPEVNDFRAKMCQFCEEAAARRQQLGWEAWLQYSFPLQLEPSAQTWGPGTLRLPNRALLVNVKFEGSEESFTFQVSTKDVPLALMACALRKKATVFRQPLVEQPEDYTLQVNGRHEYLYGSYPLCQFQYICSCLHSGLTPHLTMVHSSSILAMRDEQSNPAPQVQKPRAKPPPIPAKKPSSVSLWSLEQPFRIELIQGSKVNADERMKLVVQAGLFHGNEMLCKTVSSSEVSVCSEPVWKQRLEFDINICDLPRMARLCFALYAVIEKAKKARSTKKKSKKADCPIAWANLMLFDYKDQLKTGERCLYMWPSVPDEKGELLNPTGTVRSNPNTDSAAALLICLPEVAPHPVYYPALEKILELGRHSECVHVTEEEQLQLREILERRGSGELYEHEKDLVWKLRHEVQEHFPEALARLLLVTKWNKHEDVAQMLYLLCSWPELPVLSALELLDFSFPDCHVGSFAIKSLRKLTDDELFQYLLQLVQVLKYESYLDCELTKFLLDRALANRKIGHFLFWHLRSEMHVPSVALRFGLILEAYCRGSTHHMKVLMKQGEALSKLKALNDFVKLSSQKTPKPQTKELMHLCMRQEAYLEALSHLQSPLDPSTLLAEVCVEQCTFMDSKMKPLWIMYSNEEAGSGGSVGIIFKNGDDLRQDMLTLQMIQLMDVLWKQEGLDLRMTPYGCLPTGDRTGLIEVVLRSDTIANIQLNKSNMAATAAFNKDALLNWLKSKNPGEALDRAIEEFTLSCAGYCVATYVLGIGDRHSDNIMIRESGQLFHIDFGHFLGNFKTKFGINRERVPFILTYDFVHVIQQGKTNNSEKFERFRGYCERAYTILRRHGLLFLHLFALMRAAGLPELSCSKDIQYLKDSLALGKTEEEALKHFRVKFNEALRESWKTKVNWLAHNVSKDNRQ
# T4 sequence (P27986 whole entry partner, canonical isoform): as the sequence (P27986 whole entry partner, canonical isoform) above
# Source text: as §1, §2, §3, §4, §5, §6
IC50 [1] [µM],IC50 [2] [µM],IC50 [3] [µM],IC50 [4] [µM],Compound
0.42,0.74,0.22,0.15,"CC(=O)Nc1nc(C)c(-c2cnc(Cl)c(S(C)(=O)=O)c2)s1 [Example 7, N-[5-(6-Chloro-5-methylsulfonyl-pyridin-3-yl)-4-methyl-1,3-thiazol-2-yl]acetamide]"
0.23,0.12,0.26,< 0.1,"COCC(=O)Nc1nc(C)c(-c2cnc(Cl)c(NS(=O)(=O)c3ccccc3)c2)s1 [Example 56, N-[5-(5-Benzenesulfonylamino-6-chloropyridin-3-yl)-4-methyl-1,3-thiazol-2-yl]-2-methoxyacetamide]"
0.05,0.25,0.16,0.01,"CC(=O)Nc1nc(C)c(-c2cnc(Cl)c(NS(=O)(=O)CCCN3CCN(C)CC3)c2)s1 [Example 31, N-(5-{6-Chloro-5-[3-(4-methylpiperazin-1-yl)propylsulfonylamino]pyridin-3-yl}-4-methyl-1,3-thiazol-2-yl)acetamide bis(trifluoroacetate)]"
0.28,0.63,0.12,0.2,"CC(=O)Nc1nc(C)c(-c2cnc(Cl)c(NCc3ccccc3)c2)s1 [Example 46, N-{5-[5-(Benzylamino)-6-chloropyridin-3-yl]-4-methyl-1,3-thiazol-2-yl}acetamide]"
0.57,1.89,0.4,0.2,"CC(=O)Nc1nc(C)c(-c2cncc(S(=O)(=O)NCCO)c2)s1 [Example 8, N-{5-[5-(2-Hydroxyethylaminosulfonyl)pyridin-3-yl]-4-methyl-1,3-thiazol-2-yl}acetamide]"
